Values quoted from earlier work, collected in patent publication US20100130406A1, “GLYCATED MILK AND USES THEREOF” (SOMNACEUTICS LIMITED, priority 2007, published 2010).

What was measured:
[1] = normal (non-glycated) peptide

**Q.** Which “quantity having a soporific effect for some people” value (humans) does the source give for `COc1ccc2[nH]cc(CCNC(C)=O)c2c1` [Melatonin] here?
**A.** Its value is 3 to 5 mg.

**Q.** Which “half-life in the circulation” value [1] does the source give for beta-casomorphin-7 here?
**A.** Its value is “about a few minutes”.

**Q.** What about the “sedative and anxiolytic effects” value (cockroaches) of the same molecule?
**A.** Its value is “sedative and anxiolytic effects”.

**Q.** What about the “sedative and anxiolytic effects” value (rats) of the same molecule?
**A.** The value was “sedative and anxiolytic effects”.

**Q.** And the “sedative and anxiolytic effects” value (chickens)?
**A.** The value was “sedative and anxiolytic effects”.

**Q.** For `N[C@@H](Cc1c[nH]c2ccccc12)C(=O)O` [1-tryptophane], which “quantity required for a soporific effect” value (humans) is on record?
**A.** The value was “about 1 g”.
